Data: article PMC11191095, “QSAR Reveals Decreased Lipophilicity of Polar Residues Determines the Selectivity of Antimicrobial Peptide Activity” (ACS Omega, 2024)
Where a SMILES comes first, the peptide text is derived from it.

Experiments:
Test in all cases: microbe, parasite or virus in culture
E. coli NCTC 12923 = type: cell-based, Escherichia coli; conditions: E. coli NCTC 12923 (S)
Summary of the method: (§1)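 Peptides 128→2 μg/mL, 2-fold series; inoculum ~5 × 10^5 CFU/mL from overnight culture (OD600 0.01, mixed 1:1). MHB non-cation-adjusted for bacteria, RPMI 1640 + 2% glucose for fungi. 37 °C, 20 h, OD600. MIC50/MIC90 at 50%/90% inhibition; n ≥ 3.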

E. coli LEC001 = type: cell-based, Escherichia coli; conditions: E. coli LEC001 (R)
Summary of the method: as §1

K. pneumoniae M6 = type: cell-based, Klebsiella pneumoniae; conditions: K. pneumoniae M6 (S)
Summary of the method: as §1

K. pneumoniae NCTC 13368 = type: cell-based, Klebsiella pneumoniae; conditions: K. pneumoniae NCTC 13368 (R)
Summary of the method: as §1

C. glabrata NCPF 8018 = type: cell-based; conditions: C. glabrata NCPF 8018
Summary of the method: as §1

C. albicans NCPF 3281 = type: cell-based; conditions: C. albicans NCPF 3281
Summary of the method: as §1

C. tropicalis NCPF 8760 = type: cell-based; conditions: C. tropicalis NCPF 8760
Summary of the method: as §1

[1] = test system: C. parapsilosis NCPF 3209; type: cell-based; conditions: C. parapsilosis NCPF 3209
Summary of the method: as §1

C. krusei NCPF 3876 = type: cell-based; conditions: C. krusei NCPF 3876
Summary of the method: as §1

A. baumannii ATCC 17978 = type: cell-based, Acinetobacter baumannii; conditions: A. baumannii ATCC 17978 (S)
Summary of the method: as §1

A. baumannii AYE = type: cell-based, Acinetobacter baumannii; conditions: A. baumannii AYE (R)
Summary of the method: as §1

S. aureus (MRSA) USA300 = type: cell-based, Staphylococcus aureus; conditions: S. aureus (MRSA) USA300 (R)
Summary of the method: as §1

[2] = test system: S. aureus (MSSA) ATCC 9144; type: cell-based, Staphylococcus aureus; conditions: S. aureus (MSSA) ATCC 9144 (S)
Summary of the method: as §1

[3] = test system: S. aureus (MRSA) NCTC 13616; type: cell-based, Staphylococcus aureus; conditions: S. aureus (MRSA) NCTC 13616 (R)
Summary of the method: as §1

S. aureus (MRSA) 1199B = type: cell-based, Staphylococcus aureus; conditions: S. aureus (MRSA) 1199B (R)
Summary of the method: as §1

C. auris TDG 1912 = type: cell-based, Candida auris; conditions: C. auris TDG 1912
Summary of the method: as §1

[4] = MHB, ~5×10^5 CFU/mL, 37 °C, 20 h, OD600, min. three biological repeats
[5] = MHB, 37 °C, 20 h, OD600, min. three biological repeats
[6] = 50% growth inhibition, RPMI 1640 + 2% glucose, 37 °C, 20 h
[7] = 90% growth inhibition, RPMI 1640 + 2% glucose, 37 °C, 20 h
[8] = 50% growth inhibition, RPMI 1640 + 2% glucose, 37 °C, 20 h, OD600
[9] = 90% growth inhibition, RPMI 1640 + 2% glucose, 37 °C, 20 h, OD600

With C[C@H](NC(=O)CNC(=O)[C@H](CCCCN)NC(=O)[C@@H](N)CS)C(=O)N[C@@H](Cc1ccccc1)C(=O)N[C@@H](CCCCN)C(=O)N[C@@H](CCC(N)=O)C(=O)N[C@H](C(=O)N[C@@H](CS)C(=O)N[C@@H](CCCCN)C(=O)N[C@@H](CS)C(=O)N[C@@H](Cc1ccc(O)cc1)C(N)=O)[C@@H](C)O [Os(11-22)a] (H-CKGAFKQTCKCY-NH2; N-terminus assumed) the “Modal MIC” value (E. coli NCTC 12923; [4]) was over 128 µg/mL, the “Modal MIC” value (E. coli NCTC 12923; shown in µM) was over 91.7 µM and the “Modal MIC” value (E. coli LEC001; [5]) was over 128 µg/mL. For the same compound, the “Modal MIC” value (E. coli LEC001; shown in µM) was over 91.7 µM, the “Modal MIC” value (K. pneumoniae M6; [5]) was over 128 µg/mL and the “Modal MIC” value (K. pneumoniae M6; shown in µM) was over 91.7 µM. For the same compound, the “Modal MIC” value (K. pneumoniae NCTC 13368; [5]) was over 128 µg/mL, the “Modal MIC” value (K. pneumoniae NCTC 13368; shown in µM) was over 91.7 µM and the “Modal MIC50” value (C. glabrata NCPF 8018; [6]) was over 128 µg/mL. The “Modal MIC90” value (C. glabrata NCPF 8018; [7]) was over 128 µg/mL, the “Modal MIC50” value (C. glabrata NCPF 8018; shown in µM) was over 91.7 µM and the “Modal MIC90” value (C. glabrata NCPF 8018; shown in µM) was over 91.7 µM. The “Modal MIC50” value (C. albicans NCPF 3281; [6]) was over 128 µg/mL, the “Modal MIC90” value (C. albicans NCPF 3281; [7]) was over 128 µg/mL and the “Modal MIC50” value (C. albicans NCPF 3281; shown in µM) was over 91.7 µM. For the same compound, the “Modal MIC90” value (C. albicans NCPF 3281; shown in µM) was over 91.7 µM, the “Modal MIC50” value (C. tropicalis NCPF 8760; [6]) was over 128 µg/mL and the “Modal MIC90” value (C. tropicalis NCPF 8760; [7]) was over 128 µg/mL. The “Modal MIC50” value (C. tropicalis NCPF 8760; shown in µM) was over 91.7 µM, the “Modal MIC90” value (C. tropicalis NCPF 8760; shown in µM) was over 91.7 µM and the “Modal MIC50” value [1, 6] was over 128 µg/mL. For the same compound, the “Modal MIC90” value [1, 7] was over 128 µg/mL, the “Modal MIC50” value ([1]; shown in µM) was over 91.7 µM and the “Modal MIC90” value ([1]; shown in µM) was over 91.7 µM. The “Modal MIC50” value (C. krusei NCPF 3876; [6]) was over 128 µg/mL, the “Modal MIC90” value (C. krusei NCPF 3876; [7]) was over 128 µg/mL and the “Modal MIC50” value (C. krusei NCPF 3876; shown in µM) was over 91.7 µM. The “Modal MIC90” value (C. krusei NCPF 3876; shown in µM) was over 91.7 µM, the “Modal MIC” value (A. baumannii ATCC 17978; [5]) was over 128 µg/mL and the “Modal MIC” value (A. baumannii ATCC 17978; shown in µM) was over 91.7 µM. For the same compound, the “Modal MIC” value (A. baumannii AYE; [5]) was over 128 µg/mL, the “Modal MIC” value (A. baumannii AYE; shown in µM) was over 91.7 µM and the “Modal MIC” value (S. aureus (MRSA) USA300; [5]) was over 128 µg/mL. For the same compound, the “Modal MIC” value (S. aureus (MRSA) USA300; shown in µM) was over 91.7 µM, the “Modal MIC” value [2, 5] was over 128 µg/mL and the “Modal MIC” value ([2]; shown in µM) was over 91.7 µM. For the same compound, the “Modal MIC” value [3, 5] was over 128 µg/mL, the “Modal MIC” value ([3]; shown in µM) was over 91.7 µM and the “Modal MIC” value (S. aureus (MRSA) 1199B; [5]) was over 128 µg/mL. For the same compound, the “Modal MIC” value (S. aureus (MRSA) 1199B; shown in µM) was over 91.7 µM, the “Modal MIC50” value (C. auris TDG 1912; [8]) was over 128 µg/mL and the “Modal MIC90” value (C. auris TDG 1912; [9]) was over 128 µg/mL. The “Modal MIC50” value (C. auris TDG 1912; shown in µM) was over 91.7 µM and the “Modal MIC90” value (C. auris TDG 1912; shown in µM) was over 91.7 µM.
CC[C@H](C)[C@H](NC(=O)CNC(=O)[C@@H](N)CCCCN)C(=O)N[C@@H](CCCNC(=N)N)C(=O)NCC(=O)N[C@@H](Cc1ccc(O)cc1)C(=O)N[C@@H](CCCCN)C(=O)NCC(=O)NCC(=O)N[C@@H](Cc1ccc(O)cc1)C(=O)N[C@@H](CS)C(=O)N[C@@H](CCCCN)C(=O)NCC(=O)N[C@@H](C)C(=O)N[C@@H](Cc1ccccc1)C(=O)N[C@@H](CCCCN)C(=O)N[C@@H](CCC(N)=O)C(=O)N[C@H](C(=O)N[C@@H](CS)C(=O)N[C@@H](CCCCN)C(=O)N[C@@H](CS)C(=O)N[C@@H](Cc1ccc(O)cc1)C(=O)O)[C@@H](C)O [Os] (H-KGIRGYKGGYCKGAFKQTCKCY-OH; N-terminus and C-terminus assumed) was tested, and the “Modal MIC” value (E. coli NCTC 12923; [4]) was over 128 µg/mL, the “Modal MIC” value (E. coli NCTC 12923; shown in µM) was over 51.7 µM and the “Modal MIC” value (E. coli LEC001; [5]) was over 128 µg/mL. For the same compound, the “Modal MIC” value (E. coli LEC001; shown in µM) was over 51.7 µM, the “Modal MIC” value (K. pneumoniae M6; [5]) was over 128 µg/mL and the “Modal MIC” value (K. pneumoniae M6; shown in µM) was over 51.7 µM. For the same compound, the “Modal MIC” value (K. pneumoniae NCTC 13368; [5]) was over 128 µg/mL, the “Modal MIC” value (K. pneumoniae NCTC 13368; shown in µM) was over 51.7 µM and the “Modal MIC50” value (C. glabrata NCPF 8018; [6]) was over 128 µg/mL. The “Modal MIC90” value (C. glabrata NCPF 8018; [7]) was over 128 µg/mL, the “Modal MIC50” value (C. glabrata NCPF 8018; shown in µM) was over 51.7 µM and the “Modal MIC90” value (C. glabrata NCPF 8018; shown in µM) was over 51.7 µM. The “Modal MIC50” value (C. albicans NCPF 3281; [6]) was over 128 µg/mL, the “Modal MIC90” value (C. albicans NCPF 3281; [7]) was over 128 µg/mL and the “Modal MIC50” value (C. albicans NCPF 3281; shown in µM) was over 51.7 µM. The “Modal MIC90” value (C. albicans NCPF 3281; shown in µM) was over 51.7 µM, the “Modal MIC50” value (C. tropicalis NCPF 8760; [6]) was over 128 µg/mL and the “Modal MIC90” value (C. tropicalis NCPF 8760; [7]) was over 128 µg/mL. The “Modal MIC50” value (C. tropicalis NCPF 8760; shown in µM) was over 51.7 µM, the “Modal MIC90” value (C. tropicalis NCPF 8760; shown in µM) was over 51.7 µM and the “Modal MIC50” value [1, 6] was over 128 µg/mL. The “Modal MIC90” value [1, 7] was over 128 µg/mL, the “Modal MIC50” value ([1]; shown in µM) was over 51.7 µM and the “Modal MIC90” value ([1]; shown in µM) was over 51.7 µM. The “Modal MIC50” value (C. krusei NCPF 3876; [6]) was over 128 µg/mL, the “Modal MIC90” value (C. krusei NCPF 3876; [7]) was over 128 µg/mL and the “Modal MIC50” value (C. krusei NCPF 3876; shown in µM) was over 51.7 µM. For the same compound, the “Modal MIC90” value (C. krusei NCPF 3876; shown in µM) was over 51.7 µM, the “Modal MIC” value (A. baumannii ATCC 17978; [5]) was over 128 µg/mL and the “Modal MIC” value (A. baumannii ATCC 17978; shown in µM) was over 51.7 µM. The “Modal MIC” value (A. baumannii AYE; [5]) was over 128 µg/mL, the “Modal MIC” value (A. baumannii AYE; shown in µM) was over 51.7 µM and the “Modal MIC” value (S. aureus (MRSA) USA300; [5]) was over 128 µg/mL. For the same compound, the “Modal MIC” value (S. aureus (MRSA) USA300; shown in µM) was over 51.7 µM, the “Modal MIC” value [2, 5] was over 128 µg/mL and the “Modal MIC” value ([2]; shown in µM) was over 51.7 µM. The “Modal MIC” value [3, 5] was over 128 µg/mL, the “Modal MIC” value ([3]; shown in µM) was over 51.7 µM and the “Modal MIC” value (S. aureus (MRSA) 1199B; [5]) was over 128 µg/mL. The “Modal MIC” value (S. aureus (MRSA) 1199B; shown in µM) was over 51.7 µM, the “Modal MIC50” value (C. auris TDG 1912; [8]) was over 128 µg/mL and the “Modal MIC90” value (C. auris TDG 1912; [9]) was over 128 µg/mL. The “Modal MIC50” value (C. auris TDG 1912; shown in µM) was over 51.7 µM and the “Modal MIC90” value (C. auris TDG 1912; shown in µM) was over 51.7 µM.
